Reference: ChEMBL document CHEMBL1909046, “DrugMatrix in vitro pharmacology data”

Tests used:
[1] = biological target: Aldo-keto reductase family 1 member B1 (Rattus norvegicus, UniProt P07943); experiment: biochemical; assay type: tissue-based, Lens of camera-type eye;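 further: inhibition of aldose reductase enzyme activity, measured with DL-glyceraldehyde as the substrate; in other assays of this panel Not Active means under 50% inhibition at 10 µM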
[2] = biological target: T1, Type-2 angiotensin II receptor (Homo sapiens, UniProt P50052); assay type: cell-based; settings: cho-k1; further: in other assays of this panel Not Active means under 50% inhibition at 10 µM
T1 sequence (P50052 whole entry): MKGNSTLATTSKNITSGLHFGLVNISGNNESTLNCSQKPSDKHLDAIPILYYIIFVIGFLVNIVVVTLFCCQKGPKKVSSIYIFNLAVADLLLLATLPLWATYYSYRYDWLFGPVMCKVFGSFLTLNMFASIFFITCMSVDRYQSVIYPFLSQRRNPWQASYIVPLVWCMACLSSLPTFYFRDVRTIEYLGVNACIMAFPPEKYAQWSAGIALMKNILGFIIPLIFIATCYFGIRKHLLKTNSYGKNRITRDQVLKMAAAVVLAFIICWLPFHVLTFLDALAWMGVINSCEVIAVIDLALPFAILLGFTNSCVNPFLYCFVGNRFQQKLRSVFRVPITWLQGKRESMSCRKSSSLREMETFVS

[3] = DRUGMATRIX: Sigma2 radioligand binding (ligand: [3H] Ifenprodil); assay type: cell membranes, Rattus norvegicus, Wistar, Brain, Membrane; settings: Not Active = under 50% inhibition at 10 µM
Vasopressin V1a receptor = Vasopressin V1a receptor (Homo sapiens, UniProt P37288); assay type: cell membranes, Membrane; settings: hek293; further: in other assays of this panel Not Active means under 50% inhibition at 10 µM
Vasopressin V1a receptor, sequence (P37288 whole entry): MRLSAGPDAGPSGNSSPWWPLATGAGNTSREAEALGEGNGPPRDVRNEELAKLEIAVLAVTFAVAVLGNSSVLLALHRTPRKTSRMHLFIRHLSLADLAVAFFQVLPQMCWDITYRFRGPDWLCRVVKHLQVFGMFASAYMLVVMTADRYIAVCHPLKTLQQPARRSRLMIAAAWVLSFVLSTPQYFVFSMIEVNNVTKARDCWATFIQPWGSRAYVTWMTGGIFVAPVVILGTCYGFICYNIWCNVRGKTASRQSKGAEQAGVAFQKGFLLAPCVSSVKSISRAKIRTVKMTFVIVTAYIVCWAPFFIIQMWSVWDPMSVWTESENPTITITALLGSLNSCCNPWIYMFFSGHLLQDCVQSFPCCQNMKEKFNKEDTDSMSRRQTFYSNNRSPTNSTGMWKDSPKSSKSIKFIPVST

Glycine receptor = Glycine receptor (Rattus norvegicus, UniProt P22771+P24524+P07727+P20781); assay type: cell membranes, Wistar, Spinal cord, Membrane; further: in other assays of this panel Not Active means under 50% inhibition at 10 µM
Mu-type opioid receptor = Mu-type opioid receptor (Homo sapiens, UniProt P35372); experiment: DRUGMATRIX: Opiate mu (OP3, MOP) radioligand binding (ligand: [3H] Diprenorphine); assay type: cell membranes, CHO-K1, Membrane; settings: cho-k1; Not Active = under 50% inhibition at 10 µM
Mu-type opioid receptor, sequence (P35372 whole entry): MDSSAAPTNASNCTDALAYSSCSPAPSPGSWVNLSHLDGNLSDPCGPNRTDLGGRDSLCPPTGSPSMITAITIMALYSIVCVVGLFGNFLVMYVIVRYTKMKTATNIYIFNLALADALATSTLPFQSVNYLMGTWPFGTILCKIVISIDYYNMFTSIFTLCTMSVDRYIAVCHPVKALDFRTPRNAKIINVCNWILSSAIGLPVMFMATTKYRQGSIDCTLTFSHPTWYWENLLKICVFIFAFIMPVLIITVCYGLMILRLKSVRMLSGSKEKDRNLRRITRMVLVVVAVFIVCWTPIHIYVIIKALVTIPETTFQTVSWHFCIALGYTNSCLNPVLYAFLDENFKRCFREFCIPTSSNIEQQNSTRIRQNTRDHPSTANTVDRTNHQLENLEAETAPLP

[4] = biological target: Mitogen-activated protein kinase 1 (Homo sapiens, UniProt P28482); experiment: DRUGMATRIX: Protein Serine/Threonine Kinase, ERK2 enzyme inhibition (substrate: Myelin Basic Protein); design: species or system Escherichia coli; settings: Not Active = under 50% inhibition at 10 µM
Mitogen-activated protein kinase 1, sequence (P28482 whole entry): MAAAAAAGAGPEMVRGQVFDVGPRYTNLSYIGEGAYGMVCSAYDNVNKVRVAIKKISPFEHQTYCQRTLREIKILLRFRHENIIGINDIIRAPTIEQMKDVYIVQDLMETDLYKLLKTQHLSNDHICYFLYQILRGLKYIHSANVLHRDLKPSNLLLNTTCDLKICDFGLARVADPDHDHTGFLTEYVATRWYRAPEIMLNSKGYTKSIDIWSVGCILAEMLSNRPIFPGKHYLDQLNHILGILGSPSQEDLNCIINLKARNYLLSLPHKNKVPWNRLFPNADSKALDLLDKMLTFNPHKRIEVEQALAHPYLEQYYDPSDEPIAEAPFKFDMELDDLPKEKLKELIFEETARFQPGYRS

| Compound | IC50 [1] | IC50 [2] | IC50 [3] | Ki [3] | IC50 (Vasopressin V1a receptor) | IC50 (Glycine receptor) | IC50 (Mu-type opioid receptor) | IC50 [4] | IC50 ([4]; read-out: IC50) [nM] |
| --- | --- | --- | --- | --- | --- | --- | --- | --- | --- |
| OC[C@H]1OC2C3[C@@H](CO)OC(O[C@H]4[C@H](O)[C@@H](O)[C@@H](O[C@H]5[C@H](O)[C@@H](O)[C@@H](O[C@H]6[C@H](O)[C@@H](O)[C@@H](O[C@H]7[C@H](O)[C@@H](O)[C@@H](O[C@H]8[C@H](O)[C@@H](O)[C@@H](O[C@H]9[C@H](O)[C@@H](O)C(OC1[C@H](O)[C@H]2O)O[C@@H]9CO)O[C@@H]8CO)O[C@@H]7CO)O[C@@H]6CO)O[C@@H]5CO)O[C@@H]4CO)[C@H](O)[C@H]3O | Not Active | Not Active | Not Active | Not Active | Not Active | Not Active | Not Active | Not Active |  |
| C[C@]12CC[C@@H](O)C[C@@H]1CC[C@@H]1[C@@H]2CC[C@]2(C)C(=O)CC[C@@H]12 [ANDROSTERONE] | Not Active | Not Active | Not Active | Not Active | Not Active | Not Active | Not Active | Not Active |  |
| COC(=O)Nc1nc2ccc(Sc3ccccc3)cc2[nH]1 [FENBENDAZOLE] | Not Active | Not Active | Not Active | Not Active | Not Active | Not Active | Not Active | Not Active |  |
| C#C[C@]1(O)CC[C@H]2[C@@H]3CCC4=CC(=O)CC[C@@H]4[C@H]3CC[C@@]21C [NORETHINDRONE] | Not Active | Not Active | Not Active | Not Active | Not Active | Not Active | Not Active | Not Active |  |
| O=C(Nc1ccc(Cl)c(Cl)c1)c1cc(Cl)cc(Cl)c1O [3,3',4',5-TETRACHLOROSALICYLANILIDE] | Not Active | Not Active | Not Active | Not Active | Not Active | Not Active | Not Active |  | 886 |
| CCN(CCO)CCCC(C)Nc1ccnc2cc(Cl)ccc12 (stereo not given) [HYDROXYCHLOROQUINE] | Not Active | Not Active | Not Active | Not Active | Not Active | Not Active | Not Active | Not Active |  |
| CC1(COc2ccc(CC3SC(=O)NC3=O)cc2)CCCCC1 (stereo not given) [CIGLITAZONE] | Not Active | Not Active | Not Active | Not Active | Not Active | Not Active | Not Active | Not Active |  |
| COC(=O)C[C@](O)(CCC(C)(C)O)C(=O)O[C@@H]1C(OC)=C[C@]23CCCN2CCc2cc4c(cc2[C@H]13)OCO4 [HARRINGTONINE] | Not Active | Not Active | Not Active | Not Active | Not Active | Not Active | Not Active | Not Active |  |
| CCCCCCNC(=O)n1cc(F)c(=O)[nH]c1=O [CARMOFUR] | Not Active | Not Active | Not Active | Not Active | Not Active | Not Active | Not Active | Not Active |  |
| O=c1[nH]cnc2c1ncn2[C@H]1CC[C@@H](CO)O1 [DIDANOSINE] | Not Active | Not Active | Not Active | Not Active | Not Active | Not Active | Not Active | Not Active |  |
| O=C(O)CO [GLYCOLIC ACID] | Not Active | Not Active | Not Active | Not Active | Not Active | Not Active | Not Active | Not Active |  |
| CC(C)Cc1ccc([C@H](C)C(=O)O)cc1 [DEXIBUPROFEN] | Not Active | Not Active | Not Active | Not Active | Not Active | Not Active | Not Active | Not Active |  |
| CC(C)(C#N)c1cc(Cn2cncn2)cc(C(C)(C)C#N)c1 [ANASTROZOLE] | Not Active | Not Active | Not Active | Not Active | Not Active | Not Active | Not Active | Not Active |  |
| O=C1c2ccccc2C(=O)C1c1ccccc1 [PHENINDIONE] | Not Active | Not Active | Not Active | Not Active | Not Active | Not Active | Not Active | Not Active |  |
| NC(=O)NC(=O)Cc1ccccc1 [PHENACEMIDE] | Not Active | Not Active | Not Active | Not Active | Not Active | Not Active | Not Active | Not Active |  |
| O=C(NCCN1CCOCC1)c1ccc(Cl)cc1 [MOCLOBEMIDE] | Not Active | Not Active | Not Active | Not Active | Not Active | Not Active | Not Active | Not Active |  |
| OC[C@H]1O[C@@H]2O[C@H]3[C@H](O)[C@@H](O)[C@@H](O[C@H]4[C@H](O)[C@@H](O)[C@@H](O[C@H]5[C@H](O)[C@@H](O)[C@@H](O[C@H]6[C@H](O)[C@@H](O)[C@@H](O[C@H]7[C@H](O)[C@@H](O)[C@@H](O[C@H]1[C@H](O)[C@H]2O)O[C@@H]7CO)O[C@@H]6CO)O[C@@H]5CO)O[C@@H]4CO)O[C@@H]3CO [ALFADEX] | Not Active | Not Active | Not Active | Not Active | Not Active | Not Active | Not Active | Not Active |  |
| O=c1[nH]c2ccccc2c2ccccc12 | Not Active | Not Active | Not Active | Not Active | Not Active | Not Active | Not Active | Not Active |  |
| CCC1(c2ccccc2)C(=O)NC(=O)NC1=O [PHENOBARBITAL] | Not Active | Not Active | Not Active | Not Active | Not Active | Not Active | Not Active | Not Active |  |
| Nc1ccc(C(=O)O)c(O)c1 [AMINOSALICYLIC ACID] | Not Active | Not Active | Not Active | Not Active | Not Active | Not Active | Not Active | Not Active |  |
